Assays:
Test in all cases: biochemical
Design in all cases: Safety pharmacology off-target panel at Eurofins, radioligand binding with agonist or antagonist radioligand (Supplementary Table 2)
a2B (h) = target: T1, a2B (h) (Homo sapiens, UniProt P18089); details: antagonist radioligand
T1 construct: gene ADRA2B
Protocol: (§1) Wide-range phosphatase, kinase and preclinical safety pharmacology off-target activity screens were conducted at Eurofins (Extended Data Table 5 and Supplementary Tables 1 and 2). A small phosphatase panel was developed at AbbVie to assess IC50 values on select phosphatases. The following enzymes used in the phosphatase selectivity panel were purchased from Eurofins: PTPN1 (PTP1B; 14–621), PTPN2 (TC-PTP; 14–646), PTPN9 (14–592), SHP1 (14–591) and SHP2 (14–622). The catalytic activity of the phosphatase was monitored using the small-molecule substrate DiFMUP (ThermoFisher) in a fluorescence assay format. In brief, the phosphatase reactions were performed at room temperature in the following assay buffer: 50 mM HEPES, pH 7.2, 100 mM NaCl, 1 mM EDTA, 0.005% Tween-20 and 5 mM TCEP. Each phosphatase was incubated with increasing concentrations of AC484 for 5 min, after which the substrate DiFMUP was added and incubated at 25 °C for 30 min. The final concentration of the enzyme and substrate was maintained at 0.5 nM and 5 μM, respectively, in all the assays. The reaction was then quenched by the addition of a 100 μM solution of bpV(Phen) (Enzo Life Sciences). The fluorescence signal was monitored using an Envision microplate reader (Perkin-Elmer) using excitation and emission wavelengths of 340 nm and 450 nm, respectively. The dose–response curves for the inhibitors were analysed using normalized IC50 regression curve fitting with control-based normalization. Supplementary file 41586_2023_6575_MOESM4_ESM.xlsx: Supplementary Table 2 AC484 receptor selectivity screen.

D1 = target: T2, D1 (Homo sapiens, UniProt P21728); details: antagonist radioligand
T2 construct: gene DRD1
Protocol: as §1

Dopamine transporter = target: T3, Dopamine transporter (Homo sapiens, UniProt Q01959); details: antagonist radioligand
T3 construct: gene SLC6A3
Protocol: as §1

A2A (h) [1] = target: T4, A2A (h) (Homo sapiens, UniProt P29274); details: agonist radioligand
T4 construct: gene ADORA2A
Protocol: as §1

B2 = target: T5, B2 (Homo sapiens, UniProt P30411); details: agonist radioligand
T5 construct: gene BDKRB2
T5 sequence (P30411 whole entry): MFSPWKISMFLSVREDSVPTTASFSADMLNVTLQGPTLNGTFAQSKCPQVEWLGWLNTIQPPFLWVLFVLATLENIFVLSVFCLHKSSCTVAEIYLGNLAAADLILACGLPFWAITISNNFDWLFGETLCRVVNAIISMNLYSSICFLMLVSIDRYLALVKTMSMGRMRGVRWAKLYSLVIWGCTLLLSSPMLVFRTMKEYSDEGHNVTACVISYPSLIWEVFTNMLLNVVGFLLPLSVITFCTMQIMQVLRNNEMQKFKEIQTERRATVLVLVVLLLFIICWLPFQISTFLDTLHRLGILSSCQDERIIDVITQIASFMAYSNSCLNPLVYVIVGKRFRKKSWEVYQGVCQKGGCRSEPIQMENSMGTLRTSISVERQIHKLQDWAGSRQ
Protocol: as §1

a1B (h) = target: T6, a1B (h) (Homo sapiens, UniProt P35368); details: antagonist radioligand
T6 construct: gene ADRA1B
Protocol: as §1

VPAC1 (VIP1) = target: T7, VPAC1 (VIP1) (Homo sapiens, UniProt P32241); details: agonist radioligand
T7 construct: gene VIPR1
T7 sequence (P32241 whole entry): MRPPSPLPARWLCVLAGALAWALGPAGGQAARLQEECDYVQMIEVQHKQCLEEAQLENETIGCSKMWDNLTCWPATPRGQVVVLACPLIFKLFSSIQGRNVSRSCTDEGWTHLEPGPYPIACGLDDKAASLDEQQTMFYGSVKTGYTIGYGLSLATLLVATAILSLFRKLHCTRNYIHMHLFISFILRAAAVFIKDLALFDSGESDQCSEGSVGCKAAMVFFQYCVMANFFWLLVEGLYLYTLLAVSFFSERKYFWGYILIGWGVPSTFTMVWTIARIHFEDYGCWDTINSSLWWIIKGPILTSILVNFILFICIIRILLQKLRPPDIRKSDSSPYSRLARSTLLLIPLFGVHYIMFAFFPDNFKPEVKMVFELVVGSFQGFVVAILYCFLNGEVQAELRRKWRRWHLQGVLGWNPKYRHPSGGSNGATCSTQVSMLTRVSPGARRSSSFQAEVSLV
Protocol: as §1

a1A (h) = target: T8, a1A (h) (Homo sapiens, UniProt P35348); details: antagonist radioligand
T8 construct: gene ADRA1A
T8 sequence (P35348 whole entry): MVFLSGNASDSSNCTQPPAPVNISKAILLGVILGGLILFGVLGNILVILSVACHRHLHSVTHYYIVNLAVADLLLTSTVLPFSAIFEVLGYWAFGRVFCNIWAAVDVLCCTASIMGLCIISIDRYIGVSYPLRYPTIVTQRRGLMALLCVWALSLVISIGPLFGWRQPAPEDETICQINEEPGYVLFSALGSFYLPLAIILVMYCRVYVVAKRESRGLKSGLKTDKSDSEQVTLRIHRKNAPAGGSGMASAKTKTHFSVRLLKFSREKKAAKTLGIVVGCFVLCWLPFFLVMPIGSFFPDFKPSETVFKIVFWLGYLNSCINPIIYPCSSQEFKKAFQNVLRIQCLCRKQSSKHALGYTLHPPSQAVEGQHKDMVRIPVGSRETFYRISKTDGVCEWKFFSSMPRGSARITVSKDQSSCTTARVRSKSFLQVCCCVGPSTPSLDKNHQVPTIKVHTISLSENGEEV
Protocol: as §1

UT = target: T9, UT (Homo sapiens, UniProt Q9UKP6); details: agonist radioligand
T9 construct: gene UTS2R
T9 sequence (Q9UKP6 whole entry): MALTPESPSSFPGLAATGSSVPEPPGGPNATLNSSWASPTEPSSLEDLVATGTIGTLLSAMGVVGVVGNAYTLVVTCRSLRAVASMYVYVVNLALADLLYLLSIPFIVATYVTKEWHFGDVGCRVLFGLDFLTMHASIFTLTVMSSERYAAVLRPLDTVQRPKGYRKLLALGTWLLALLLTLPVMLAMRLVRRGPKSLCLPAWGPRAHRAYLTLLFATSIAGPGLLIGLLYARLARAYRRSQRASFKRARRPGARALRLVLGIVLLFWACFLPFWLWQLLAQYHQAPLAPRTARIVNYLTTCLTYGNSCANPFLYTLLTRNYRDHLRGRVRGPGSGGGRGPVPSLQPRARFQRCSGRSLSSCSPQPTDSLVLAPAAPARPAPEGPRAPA
Protocol: as §1

CGRP = target: T10, CGRP (Homo sapiens, UniProt O60894+Q16602); details: agonist radioligand
T10 construct: gene RAMP1
Protocol: as §1

5-HT2C = target: T11, 5-HT2C (Homo sapiens, UniProt P28335); details: antagonist radioligand
T11 construct: gene HTR2C
T11 sequence (P28335 whole entry): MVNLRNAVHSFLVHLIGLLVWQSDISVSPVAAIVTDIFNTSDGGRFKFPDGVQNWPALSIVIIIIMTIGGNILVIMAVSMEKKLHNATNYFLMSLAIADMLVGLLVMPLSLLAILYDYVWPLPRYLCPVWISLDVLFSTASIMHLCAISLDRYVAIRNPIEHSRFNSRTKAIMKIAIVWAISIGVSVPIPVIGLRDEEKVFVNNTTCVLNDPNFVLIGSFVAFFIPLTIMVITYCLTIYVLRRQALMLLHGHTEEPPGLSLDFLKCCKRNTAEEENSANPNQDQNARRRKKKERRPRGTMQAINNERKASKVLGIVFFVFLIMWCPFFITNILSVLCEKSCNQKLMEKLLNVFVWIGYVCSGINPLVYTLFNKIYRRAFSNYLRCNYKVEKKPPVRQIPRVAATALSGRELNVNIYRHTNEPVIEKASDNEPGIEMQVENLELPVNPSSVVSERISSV
Protocol: as §1

M1 = target: T12, M1 (Homo sapiens, UniProt P11229); details: antagonist radioligand
T12 construct: gene CHRM1
Protocol: as §1

M5 = target: T13, M5 (Homo sapiens, UniProt P08912); details: antagonist radioligand
T13 construct: gene CHRM5
T13 sequence (P08912 whole entry): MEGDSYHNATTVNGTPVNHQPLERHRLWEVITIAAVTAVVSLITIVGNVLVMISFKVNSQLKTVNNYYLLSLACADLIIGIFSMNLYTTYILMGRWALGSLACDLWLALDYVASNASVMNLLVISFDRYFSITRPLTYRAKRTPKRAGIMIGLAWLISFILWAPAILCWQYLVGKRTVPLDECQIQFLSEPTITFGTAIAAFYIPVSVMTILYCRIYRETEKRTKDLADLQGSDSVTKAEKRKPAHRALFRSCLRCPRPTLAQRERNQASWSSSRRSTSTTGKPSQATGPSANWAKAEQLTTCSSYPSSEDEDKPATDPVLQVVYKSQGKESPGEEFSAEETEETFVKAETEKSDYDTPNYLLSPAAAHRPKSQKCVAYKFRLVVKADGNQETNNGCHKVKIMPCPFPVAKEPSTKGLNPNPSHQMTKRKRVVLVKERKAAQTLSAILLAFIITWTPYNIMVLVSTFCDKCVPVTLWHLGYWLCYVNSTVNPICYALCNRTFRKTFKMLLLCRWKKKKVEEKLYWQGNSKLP
Protocol: as §1

5-HT4e = target: T14, 5-HT4e (Homo sapiens, UniProt Q13639); details: antagonist radioligand
T14 construct: gene HTR4; 5-HT4e isoform
T14 sequence (Q13639 whole entry, canonical isoform): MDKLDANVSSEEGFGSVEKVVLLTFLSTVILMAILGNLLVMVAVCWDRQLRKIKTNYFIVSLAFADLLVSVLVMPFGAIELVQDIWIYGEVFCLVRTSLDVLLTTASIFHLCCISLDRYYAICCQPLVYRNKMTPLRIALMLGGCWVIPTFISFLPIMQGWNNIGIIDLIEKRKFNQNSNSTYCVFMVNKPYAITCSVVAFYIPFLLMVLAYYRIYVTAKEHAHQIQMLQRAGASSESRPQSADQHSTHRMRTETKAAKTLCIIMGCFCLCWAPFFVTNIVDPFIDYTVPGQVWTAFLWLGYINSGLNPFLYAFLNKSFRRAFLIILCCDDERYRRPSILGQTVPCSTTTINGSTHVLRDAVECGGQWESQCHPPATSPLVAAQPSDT
Protocol: as §1

d (DOP) = target: T15, d (DOP) (Homo sapiens, UniProt P41143); details: agonist radioligand
T15 construct: gene OPRD1; DOP
T15 sequence (P41143 whole entry): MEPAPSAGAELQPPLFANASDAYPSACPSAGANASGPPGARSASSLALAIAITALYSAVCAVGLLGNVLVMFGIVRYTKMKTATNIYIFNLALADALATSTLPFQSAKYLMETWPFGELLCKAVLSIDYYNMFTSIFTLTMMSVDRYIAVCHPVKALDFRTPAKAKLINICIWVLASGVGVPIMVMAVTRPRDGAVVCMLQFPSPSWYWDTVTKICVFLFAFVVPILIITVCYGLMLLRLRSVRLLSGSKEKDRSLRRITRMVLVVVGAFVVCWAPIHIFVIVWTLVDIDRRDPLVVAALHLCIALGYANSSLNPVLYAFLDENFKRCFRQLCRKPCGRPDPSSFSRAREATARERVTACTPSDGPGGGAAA
Protocol: as §1

M2 = target: T16, M2 (Homo sapiens, UniProt P08172); details: antagonist radioligand
T16 construct: gene CHRM2
T16 sequence (P08172 whole entry): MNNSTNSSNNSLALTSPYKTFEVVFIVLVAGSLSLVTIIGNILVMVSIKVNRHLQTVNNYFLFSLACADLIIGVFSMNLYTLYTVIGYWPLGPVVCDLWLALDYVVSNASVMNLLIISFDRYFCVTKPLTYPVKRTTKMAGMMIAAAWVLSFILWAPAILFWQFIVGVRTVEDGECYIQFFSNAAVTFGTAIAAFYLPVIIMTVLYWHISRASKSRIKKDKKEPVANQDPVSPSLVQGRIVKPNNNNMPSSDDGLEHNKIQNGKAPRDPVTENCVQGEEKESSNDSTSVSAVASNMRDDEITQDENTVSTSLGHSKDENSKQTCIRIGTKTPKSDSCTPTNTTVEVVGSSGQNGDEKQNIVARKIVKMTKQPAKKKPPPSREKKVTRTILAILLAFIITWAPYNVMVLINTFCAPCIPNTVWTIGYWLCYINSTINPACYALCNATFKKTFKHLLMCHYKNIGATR
Protocol: as §1

PPARg = PPARg (Homo sapiens, UniProt P37231); details: agonist radioligand
PPARg, sequence (P37231 whole entry): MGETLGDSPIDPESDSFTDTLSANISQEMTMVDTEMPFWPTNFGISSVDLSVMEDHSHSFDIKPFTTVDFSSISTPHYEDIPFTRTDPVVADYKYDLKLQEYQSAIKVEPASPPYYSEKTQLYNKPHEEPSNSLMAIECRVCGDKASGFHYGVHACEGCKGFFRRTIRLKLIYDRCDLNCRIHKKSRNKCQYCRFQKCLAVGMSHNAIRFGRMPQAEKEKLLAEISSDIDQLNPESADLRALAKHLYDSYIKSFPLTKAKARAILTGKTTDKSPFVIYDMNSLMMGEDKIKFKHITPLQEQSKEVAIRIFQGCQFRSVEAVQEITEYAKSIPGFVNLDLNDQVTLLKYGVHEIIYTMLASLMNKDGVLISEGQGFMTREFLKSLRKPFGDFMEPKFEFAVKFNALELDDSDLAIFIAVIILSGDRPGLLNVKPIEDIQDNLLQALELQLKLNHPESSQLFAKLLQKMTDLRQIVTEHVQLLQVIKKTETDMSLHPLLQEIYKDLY
Protocol: as §1

ETB = target: T17, ETB (Homo sapiens, UniProt P24530); details: agonist radioligand
T17 construct: gene EDNRB
T17 sequence (P24530 whole entry): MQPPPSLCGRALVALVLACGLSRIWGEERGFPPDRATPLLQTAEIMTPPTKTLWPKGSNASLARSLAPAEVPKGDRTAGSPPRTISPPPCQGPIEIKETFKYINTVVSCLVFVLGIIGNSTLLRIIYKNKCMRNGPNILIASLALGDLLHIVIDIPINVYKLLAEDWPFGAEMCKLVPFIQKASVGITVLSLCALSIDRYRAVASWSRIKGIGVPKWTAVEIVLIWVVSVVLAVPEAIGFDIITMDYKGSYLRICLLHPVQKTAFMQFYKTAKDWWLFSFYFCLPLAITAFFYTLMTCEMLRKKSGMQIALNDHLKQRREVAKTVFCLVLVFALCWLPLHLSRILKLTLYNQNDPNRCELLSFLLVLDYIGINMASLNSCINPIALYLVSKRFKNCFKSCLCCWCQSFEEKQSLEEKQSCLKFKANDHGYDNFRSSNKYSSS
Protocol: as §1

a2A (h) [2] = target: T18, a2A (h) (Homo sapiens, UniProt P08913); details: antagonist radioligand
T18 construct: gene ADRA2A
Protocol: as §1

Measured: AC50

CC(C)CCN[C@@H]1CCc2cc(O)c(N3CC(=O)NS3(=O)=O)c(F)c2C1 [AC484, ABBV-CLS-484]
> 0.01 mM: all assays above

Reference: article PMC10599993, “The PTPN2/PTPN1 inhibitor ABBV-CLS-484 unleashes potent anti-tumour immunity” (Nature, 2023)
